Values of other authors in patent US20090004306A1, “Composition for treatment of diabetes and maintaining healthy blood glucose levels” (priority 2007, published 2009).

Key:
[1] = Kim study

For `O=C/C=C/c1ccccc1` [cinnamaledhyde], the “hypoglycemic properties / blood glucose level” value [1] is listed as “exhibit hypoglycemic properties”.
In the case of `[Cr]` [chromium], the “glucose levels and related variables” value (people with glucose intolerance and type 1, type 2, gestational, and steroid-induced diabetes) is listed as “improve glucose levels and related variables”.
In the case of chromium picolinate, the “insulin sensitivity and glycemic control” value (ample intakes, individuals and diabetics) is listed as “promote insulin sensitivity in many individuals and improve glycemic control in some diabetics”.
